Structures can show the parent of a compound that is named as a salt. Where two headings read alike, the source gives them in different places.
Columns and labels:
Na—H exchange = biological target: T1, Na—H exchange (Rattus norvegicus, UniProt P26431); assay: Rat platelet swelling in sodium propionate solution (light transmittance of PRP), inhibition of Na—H exchange; assay type: cell-based; settings: for inhibition at 0.1 µM: 1 min, read-out: Inhibition Rate (%) [10^−7 M]
T1 construct: The blood was centrifuged at 3000 rpm for 5 seconds to obtain platelet rich plasma (PRP); from tissue; host or cells: platelets in platelet rich plasma from abdominal aortic blood of male Wistar rats
T1 sequence (P26431 whole entry): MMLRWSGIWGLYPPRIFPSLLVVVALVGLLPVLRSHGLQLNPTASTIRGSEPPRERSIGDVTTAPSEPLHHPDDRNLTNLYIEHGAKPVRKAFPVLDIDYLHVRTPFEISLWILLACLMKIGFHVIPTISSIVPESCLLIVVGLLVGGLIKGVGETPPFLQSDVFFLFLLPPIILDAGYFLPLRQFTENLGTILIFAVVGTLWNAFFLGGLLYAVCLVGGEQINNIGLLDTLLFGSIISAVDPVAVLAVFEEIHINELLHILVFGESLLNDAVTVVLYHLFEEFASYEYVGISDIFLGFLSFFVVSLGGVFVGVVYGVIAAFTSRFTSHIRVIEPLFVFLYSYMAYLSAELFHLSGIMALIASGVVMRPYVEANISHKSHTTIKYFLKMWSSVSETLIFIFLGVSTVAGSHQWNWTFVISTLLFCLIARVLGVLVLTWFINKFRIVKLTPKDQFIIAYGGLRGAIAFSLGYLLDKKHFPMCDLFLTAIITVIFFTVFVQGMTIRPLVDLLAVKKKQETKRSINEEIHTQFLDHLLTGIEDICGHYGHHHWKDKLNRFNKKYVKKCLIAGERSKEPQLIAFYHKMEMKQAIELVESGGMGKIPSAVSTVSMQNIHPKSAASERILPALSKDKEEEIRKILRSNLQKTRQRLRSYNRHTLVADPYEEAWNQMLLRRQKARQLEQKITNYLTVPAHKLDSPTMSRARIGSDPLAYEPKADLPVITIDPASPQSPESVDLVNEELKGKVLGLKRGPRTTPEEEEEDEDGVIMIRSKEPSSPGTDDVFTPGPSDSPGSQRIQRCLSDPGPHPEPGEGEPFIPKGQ
Procedure: Male Wistar rats (350-450 g) were anesthetized with sodium pentobarbital (50 mg/kg, i.p.). Using a disposable syringe pre-filled with 1.5 ml of 3.8% citric acid solution, 8.5 ml of blood was collected from the abdominal aorta. The blood was centrifuged at 3000 rpm for 5 seconds to obtain platelet rich plasma (PRP). The number of platelets in the PRP was counted by an automatic hemocytometer (Sysmex 2500, TOA Medical Electronics). The PRP was diluted with physiological saline to make the concentration of 40×10^4 platelets per 1 μl. A platelet aggregometer (Hematoracer, Niko Bioscience) was used for measurement of the platelet swelling. 200 μl of the PRP was poured into a cuvette and 600 μl of sodium propionate solution (Na propionate 135, glucose 10, Hepes 20, CaCl2 1, MgCl2 1; Units: mM; pH6.7) was added while stirring at 37° C. The change in the light transmittance of PRP which was an indicator of the platelet swelling was recorded on a plotter. The test compound was added 3 minutes before addition of the sodium propionate solution. The test compounds were dissolved in dimethylsulfoxide (DMSO).

[1] = test compound 10^−7 M, rat platelet rich plasma, value 1 minute after sodium propionate solution, 100% = difference between 1% DMSO and HOE-642 (10^−5M)

Row | melting point | inhibition at 0.1 µM (Na—H exchange; [1]) | Structure (SMILES) | also measured
1 | 194 to 196 °C (dec.) | – | Cc1ccnc2c1C(=NNC(=N)NO)CC(c1cc(Br)sc1Br)C2.Cl (stereo not drawn) | –
2 | 260 °C (dec.) | – | Cc1cn(S(C)(=O)=O)c2c1C(=NNC(=N)N)CC(c1ccccc1)C2.Cl (stereo not drawn) | –
3 | 208 to 210 °C | – | Cl.N=C(N)NN=C1CC(c2ccccc2Cl)Cc2[nH]nc(Nc3ccccc3)c21 (stereo not drawn) | –
4 | 185 °C (dec.) | – | Cl.N=C(N)NN=C1CC(c2ccccc2Cl)Cc2[nH]nc(-c3ccccc3)c21 (stereo not drawn) | –
5 | 185 °C (dec.) | – | Cc1c2c(nn1CCc1ccccc1)CC(c1ccccc1Cl)CC2=NNC(=N)N.Cl (stereo not drawn) | –
6 | 176 to 178 °C | – | Cc1cnnc2c1C(=NNC(=N)NO)CC(c1cc(Cl)sc1Cl)C2.Cl (stereo not drawn) | –
7 | 198 to 200 °C | – | Cc1cc(Cl)c(C2CC(=NNC(=N)N)c3c(C)ccnc3C2)s1.Cl (stereo not drawn) | –
8 | 277 °C (dec.) | – | Cc1coc2c1/C(=N/NC(=N)N)CC(c1ccc(F)cc1)C2.Cl (stereo not drawn) | –
9 | 291 °C (dec.) | – | Cl.N=C(N)N/N=C1\CC(c2ccccc2)Cc2occ(C(F)(F)F)c21 (stereo not drawn) | –
10 | 247 °C (dec.) | – | Cc1ccccc1C1CC(=NNC(=N)N)c2c(C(F)(F)F)coc2C1.Cl (stereo not drawn) | –
11 | 205 °C (dec.) | – | Cl.Cn1ccc2c1CC(c1ccccc1)CC2=NNC(=N)N (stereo not drawn) | –
12 | 271 to 273 °C | – | Cc1ccc(C2CC(=NNC(=N)N)c3c(C)ccnc3C2)s1.Cl (stereo not drawn) | –
13 | 260 °C (dec.) | – | Cc1ccnc2c1C(=NNC(=N)N)CC(c1ccccn1)C2.Cl (stereo not drawn) | –
14 | 259 °C (dec.) | – | Cc1ccnc2c1C(=NNC(=N)N)CC(c1ccc(F)cc1)C2.Cl (stereo not drawn) | –
15 | 232 °C (dec.) | – | Cc1cc(C)c2c(n1)CC(c1ccccc1F)CC2=NNC(=N)N.Cl (stereo not drawn) | –
16 | 193 to 195 °C (dec.) | – | Cc1ccnc2c1C(=NNC(=N)NO)CC(c1c(Cl)cccc1Cl)C2.Cl (stereo not drawn) | –
17 | 194 to 195 °C | 86% | CS(=O)(=O)O.Cc1ccnc2c1C(=NNC(=N)N)CC(c1ccccc1Cl)C2 (single isomer, unassigned; (-)) [Compound 64, (−)-7-(2-chlorophenyl)-5-guanidinoimino-4-methyl-5,6,7,8-tetrahydroquinoline methanesulfonate] | –
18 | – | – | Cc1ccnc2c1C(=NNC(=N)N)CC(c1cc(Cl)sc1Cl)C2 (single isomer, unassigned; (-)) [Compound 109, (−)-7-(2,5-dichlorothiophen-3-yl)-5-guanidinoimino-4-methyl-5,6,7,8-tetrahydroquinoline hydrochloride] | inhibition at 0.1 µM (Na—H exchange): 91%
19 | 187 °C (dec.) | 86% | Cc1ccccc1C1CC(=NNC(=N)N)c2c(C)c[nH]c2C1.Cl (stereo not drawn) [Compound 6, 4-guanidinoimino-3-methyl-6-(2-methylphenyl)-4,5,6,7-tetrahydroindole hydrochloride] | –

Row | melting point | inhibition at 0.1 µM (Na—H exchange; [1]) | Structure (SMILES) | also measured
20 | – | 72% | Cc1n[nH]c2c1C(=NNC(=N)N)CC(c1ccccc1Cl)C2 (stereo not drawn) [Compound 21, 4-guanidinoimino-6-(2-chlorophenyl)-3-methyl-4,5,6,7-tetrahydroindazole hydrochloride] | –
21 | 196 to 200 °C | 76% | CCc1n[nH]c2c1C(=NNC(=N)N)CC(c1ccccc1Cl)C2.Cl (stereo not drawn) [Compound 27, 6-(2-chlorophenyl)-3-ethyl-4-guanidinoimino-4,5,6,7-tetrahydroindazole hydrochloride] | –
22 | 285 °C (dec.) | 70% | Cc1coc2c1C(=NNC(=N)N)CC(c1cccs1)C2.Cl (stereo not drawn) [Compound 48, 4-guanidinoimino-3-methyl-6-(2-thienyl)-4,5,6,7-tetrahydrobenzofuran hydrochloride] | –
23 | – | 72% | Cc1ccnc2c1C(=NNC(=N)N)CC(c1ccccc1F)C2 (stereo not drawn) [Compound 59, 7-(2-fluorophenyl)-5-guanidinoimino-4-methyl-5,6,7,8-tetrahydroquinoline hydrochloride] | –
24 | 204 °C (dec.) | – | Cc1ccnc2c1C(=NNC(=N)N)CC(c1ccccc1Cl)C2.Cl (stereo not drawn) [Compound 61, 7-(2-chlorophenyl)-5-guanidinoimino-4-methyl-5,6,7,8-tetrahydroquinoline hydrochloride] | Inhibition Rate (%) [10^−7 M] (Na—H exchange; [1]): 78%
25 | 194 to 196 °C | – | CS(=O)(=O)O.Cc1ccnc2c1C(=NNC(=N)N)CC(c1ccccc1Cl)C2 (stereo not drawn) [Compound 65] | –
26 | 161 °C (dec.) | 70% | Cc1ccnc2c1C(=NNC(=N)N)CC(c1ccccc1O)C2.Cl (stereo not drawn) [Compound 68, 5-guanidinoimino-7-(2-hydroxyphenyl)-4-methyl-5,6,7,8-tetrahydroquinoline hydrochloride] | –
27 | 225 °C (dec.) | 81% | Cc1ccnc2c1C(=NNC(=N)N)CC(c1cccs1)C2.Cl (stereo not drawn) [Compound 70, 5-guanidinoimino-4-methyl-7-(2-thienyl)-5,6,7,8-tetrahydroquinoline hydrochloride] | –
28 | 184 to 187 °C | 76% | Cc1ccsc1C1CC(=NNC(=N)N)c2c(C)ccnc2C1.Cl (stereo not drawn) [Compound 73, 5-guanidinoimino-4-methyl-7-(3-methyl-2-thienyl)-5,6,7,8-tetrahydroquinoline hydrochloride] | –
29 | 203 °C (dec.) | 98% | Cc1ccnc2c1C(=NNC(=N)N)CC(c1sccc1Cl)C2.Cl (stereo not drawn) [Compound 74, 7-(3-chloro-2-thienyl)-5-guanidinoimino-4-methyl-5,6,7,8-tetrahydroquinoline hydrochloride] | –
30 | 158 to 159 °C | 77% | COc1ccnc2c1C(=NNC(=N)N)CC(c1ccccc1Cl)C2.CS(=O)(=O)O (stereo not drawn) [Compound 79, 7-(2-chlorophenyl)-5-guanidinoimino-4-methoxy-5,6,7,8-tetrahydroquinoline methanesulfonate] | –
31 | – | 75% | CCOc1ccnc2c1C(=NNC(=N)N)CC(c1ccccc1Cl)C2 (stereo not drawn) [Compound 80, 7-(2-chlorophenyl)-4-ethoxy-5-guanidinoimino-5,6,7,8-tetrahydroquinoline hydrochloride] | –
32 | 234 to 235 °C (dec.) | 69% | Cc1n[nH]c2c1C(=NNC(=N)NO)CC(c1ccccc1Cl)C2.Cl (stereo not drawn) [Compound 93, 6-(2-chlorophenyl)-4-(1-hydroxyguanidin-3-yl)imino-3-methyl-4,5,6,7-tetrahydroindazole hydrochloride] | –
33 | 204 °C (dec.) | 100% | Cc1n[nH]c2c1C(=NNC(=N)N)CC(c1sccc1Cl)C2.Cl (stereo not drawn) [Compound 119, 6-(3-chloro-2-thienyl)-4-guanidinoimino-3-methyl-4,5,6,7-tetrahydroindazole hydrochloride] | –
34 | 243 to 245 °C | 81% | Cc1ccnc2c1C(=NNC(=N)N)CC(c1ccsc1Br)C2.Cl (stereo not drawn) [Compound 123, 7-(2-bromothiophen-3-yl)-5-guanidinoimino-4-methyl-5,6,7,8-tetrahydroquinoline hydrochloride] | –
35 | – | 83% | CCc1cnnc2c1C(=NNC(=N)N)CC(c1cc(Cl)sc1Cl)C2 (stereo not drawn) [Compound 134, 7-(2,5-dichlorothiophen-3-yl)-4-ethyl-5-guanidinoimino-5,6,7,8-tetrahydrocinnoline methanesulfonate] | –
36 | 265 to 266 °C (dec.) | – | N=C(N)NN=C1CC(c2cc(Cl)sc2Cl)Cc2nncc(C(F)(F)F)c21 (stereo not drawn) [Compound 135, 7-(2,5-dichlorothiophen-3-yl)-5-guanidinoimino-4-trifluoromethyl-5,6,7,8-tetrahydrocinnoline] | –
37 | 168 to 172 °C | – | CS(=O)(=O)O.Cc1ccnc2c1C(=NNC(=N)N)CC(c1sc(Cl)cc1Cl)C2 (stereo not drawn) [Compound 143] | –
38 | 172 to 176 °C | – | CS(=O)(=O)O.Cc1ccnc2c1C(=NNC(=N)N)CC(c1sc(Cl)cc1Cl)C2 (stereo not drawn) [Compound 144] | –

Row | Structure (SMILES) | melting point | inhibition at 0.1 µM (Na—H exchange; [1]) | also measured
39 | CS(=O)(=O)O.Cc1ccnc2c1C(=NNC(=N)N)CC(c1cc(Cl)sc1Cl)C2.O (stereo not drawn) (hydrate or solvate) | 239 to 241 °C | – | –
40 | Cc1ccnc2c1C(=NNC(=N)N)CC(c1cc(Cl)sc1Cl)C2 (racemic) [Compound 108, (±)-7-(2,5-dichlorothiophen-3-yl)-5-guanidinoimino-4-methyl-5,6,7,8-tetrahydroquinoline] | 250 to 251 °C | – | –
41 | Cc1ccnc2c1C(=NNC(=N)N)CC(c1cc(Cl)sc1Cl)C2 (single isomer, unassigned; (-)) [Compound 112, (−)-7-(2,5-dichlorothiophen-3-yl)-5-guanidinoimino-4-methyl-5,6,7,8-tetrahydroquinoline] | 129 to 133 °C | – | –
42 | CS(=O)(=O)O.Cc1ccnc2c1C(=NNC(=N)N)CC(c1cc(Cl)sc1Cl)C2 (single isomer, unassigned; (-)) [Compound 113, (−)-7-(2,5-dichlorothiophen-3-yl)-5-guanidinoimino-4-methyl-5,6,7,8-tetrahydroquinoline methanesulfonate] | 229 to 231 °C | 100% | –
43 | CS(=O)(=O)O.Cc1ccnc2c1C(=NNC(=N)N)CC(c1cc(Cl)sc1Cl)C2 (stereo not drawn) [Compound 111] | 225 to 229 °C | – | –
